According to patent publication US11993599B2, “Therapeutic compounds” (Genentech, Inc., priority 2021, dated 2024):

What was measured:
BRG1 = target: T1, BRG1 (Homo sapiens, UniProt P51532); assay: Immunofluorescence assay for BRG1 degradation in SW1573 cells; assay type: cell-based; conditions: 20 hours incubation; for DC50: immunofluorescence mean nuclear signal, read-out: BRG1 IF Degradation IC50; for Dmax: SW1573, 20 h, normalized to a known degrader control, read-out: BRG1 IF Degradation Sinf (%)
T1 construct: either BRM primary antibody (Cell signaling Cat #11966) or BRG primary antibody (Abcam, ab 110641); endogenous in cells; host or cells: SW1573
Protocol: (§1) Example B-2: Immunofluorescence Assay for BRM and BRG1 Degraders
(§2) SW1573 cells were seeded at 3000 cells/well in 384 well plates. The next day, compounds were added using an Echo dispenser. After 20 hours of incubation with compound, cells were fixed with 4% formaldehyde then permeabilized with 0.2% Triton X-100 and blocked with 10% FCS. Fixed and permeabilized cells were treated overnight at 4° C. with either BRM primary antibody (Cell signaling Cat #11966) or BRG primary antibody (Abcam, ab 110641). Finally, cells were treated with fluorescently labeled secondary antibodies for 1 hr (Donkey anti-Rabbit IgG AF488, Life Technologies, A21206) and Hoechst nuclear stain (#H3569) was added for 30 minutes. Cells were washed with PBS in between each step and before imaging on an Opera Phenix microscope (Perkin Elmer). Harmony software (Perking Elmer) was used to quantify the mean nuclear signaling intensity of BRM or BRG signaling per cell in each well. Dose responses were determined from the concentration dependent response of mean nuclear signal intensity with data normalized to a known degrader control. Dose response curves were fit to a floating maximum to allow for calculation of the Dmax.
(§3) Note that, in Table 5, the “Compound Number” corresponds to that used in Table 1. In Table 5, for BRM and BRG1 IF degradation IC50 (μM): A indicates <0.010 μM, B indicates 0.010-0.10 μM, and C indicates >0.10 μM; and for BRM and BRG1 IF degradation Sinf % D indicates 0-−30%, E indicates −30%-−70%, F indicates −71%-−120% and ND indicates the value was not determined.

BRM = BRM (Homo sapiens, UniProt P51531); assay: Immunofluorescence assay for BRM degradation in SW1573 cells; assay type: cell-based; parameters: treated overnight at 4° C. with either BRM primary antibody (Cell signaling Cat #11966) or BRG primary antibody; endogenous in cells; host or cells: SW1573; conditions: 20 hours incubation; for DC50: immunofluorescence mean nuclear signal, read-out: BRM IF Degradation IC50; for BRM IF Degradation Sinf (%): normalized to a known degrader control
Protocol: as §1, §2, §3

T1 sequence (P51532 whole entry): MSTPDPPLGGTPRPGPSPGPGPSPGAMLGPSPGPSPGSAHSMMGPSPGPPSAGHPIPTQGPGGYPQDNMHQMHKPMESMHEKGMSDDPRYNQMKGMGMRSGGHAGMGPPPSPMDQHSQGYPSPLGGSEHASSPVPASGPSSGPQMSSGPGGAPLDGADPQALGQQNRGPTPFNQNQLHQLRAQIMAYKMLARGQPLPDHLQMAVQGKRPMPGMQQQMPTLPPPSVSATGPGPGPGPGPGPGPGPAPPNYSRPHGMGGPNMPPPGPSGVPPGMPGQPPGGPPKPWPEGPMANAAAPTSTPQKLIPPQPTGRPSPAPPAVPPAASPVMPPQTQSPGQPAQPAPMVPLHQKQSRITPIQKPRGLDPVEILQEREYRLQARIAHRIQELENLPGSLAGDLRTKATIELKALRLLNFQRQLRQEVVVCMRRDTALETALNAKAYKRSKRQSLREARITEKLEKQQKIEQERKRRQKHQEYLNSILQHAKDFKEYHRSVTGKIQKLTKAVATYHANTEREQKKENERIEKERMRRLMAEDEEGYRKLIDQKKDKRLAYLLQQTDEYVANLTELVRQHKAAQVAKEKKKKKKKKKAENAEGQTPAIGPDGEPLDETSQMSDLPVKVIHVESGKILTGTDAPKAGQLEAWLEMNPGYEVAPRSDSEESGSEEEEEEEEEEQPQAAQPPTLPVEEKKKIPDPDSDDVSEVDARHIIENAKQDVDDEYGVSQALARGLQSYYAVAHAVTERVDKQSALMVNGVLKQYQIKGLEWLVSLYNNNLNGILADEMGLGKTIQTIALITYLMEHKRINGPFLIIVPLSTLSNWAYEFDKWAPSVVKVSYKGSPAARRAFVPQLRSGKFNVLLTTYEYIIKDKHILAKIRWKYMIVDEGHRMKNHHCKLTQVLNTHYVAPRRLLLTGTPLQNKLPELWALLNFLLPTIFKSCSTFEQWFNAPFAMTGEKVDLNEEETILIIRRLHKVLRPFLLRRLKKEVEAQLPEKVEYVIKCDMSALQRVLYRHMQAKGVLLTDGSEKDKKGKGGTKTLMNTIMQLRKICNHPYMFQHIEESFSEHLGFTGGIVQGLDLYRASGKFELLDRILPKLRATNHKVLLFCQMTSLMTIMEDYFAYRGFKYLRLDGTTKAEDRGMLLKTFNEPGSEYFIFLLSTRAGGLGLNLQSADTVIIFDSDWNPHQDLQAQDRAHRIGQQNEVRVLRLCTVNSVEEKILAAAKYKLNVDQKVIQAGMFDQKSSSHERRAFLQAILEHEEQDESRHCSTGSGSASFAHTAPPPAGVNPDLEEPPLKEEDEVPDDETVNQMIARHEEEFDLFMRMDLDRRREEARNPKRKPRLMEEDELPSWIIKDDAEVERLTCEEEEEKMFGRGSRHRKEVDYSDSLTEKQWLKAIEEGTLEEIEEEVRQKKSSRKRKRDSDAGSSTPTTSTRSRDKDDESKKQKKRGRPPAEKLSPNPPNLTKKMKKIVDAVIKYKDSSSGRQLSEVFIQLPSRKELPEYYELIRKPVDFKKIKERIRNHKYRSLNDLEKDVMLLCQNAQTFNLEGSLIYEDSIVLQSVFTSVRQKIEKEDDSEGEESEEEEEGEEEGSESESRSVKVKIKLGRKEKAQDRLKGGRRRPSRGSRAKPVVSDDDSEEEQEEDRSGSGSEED
Sequence of BRM (P51531 whole entry): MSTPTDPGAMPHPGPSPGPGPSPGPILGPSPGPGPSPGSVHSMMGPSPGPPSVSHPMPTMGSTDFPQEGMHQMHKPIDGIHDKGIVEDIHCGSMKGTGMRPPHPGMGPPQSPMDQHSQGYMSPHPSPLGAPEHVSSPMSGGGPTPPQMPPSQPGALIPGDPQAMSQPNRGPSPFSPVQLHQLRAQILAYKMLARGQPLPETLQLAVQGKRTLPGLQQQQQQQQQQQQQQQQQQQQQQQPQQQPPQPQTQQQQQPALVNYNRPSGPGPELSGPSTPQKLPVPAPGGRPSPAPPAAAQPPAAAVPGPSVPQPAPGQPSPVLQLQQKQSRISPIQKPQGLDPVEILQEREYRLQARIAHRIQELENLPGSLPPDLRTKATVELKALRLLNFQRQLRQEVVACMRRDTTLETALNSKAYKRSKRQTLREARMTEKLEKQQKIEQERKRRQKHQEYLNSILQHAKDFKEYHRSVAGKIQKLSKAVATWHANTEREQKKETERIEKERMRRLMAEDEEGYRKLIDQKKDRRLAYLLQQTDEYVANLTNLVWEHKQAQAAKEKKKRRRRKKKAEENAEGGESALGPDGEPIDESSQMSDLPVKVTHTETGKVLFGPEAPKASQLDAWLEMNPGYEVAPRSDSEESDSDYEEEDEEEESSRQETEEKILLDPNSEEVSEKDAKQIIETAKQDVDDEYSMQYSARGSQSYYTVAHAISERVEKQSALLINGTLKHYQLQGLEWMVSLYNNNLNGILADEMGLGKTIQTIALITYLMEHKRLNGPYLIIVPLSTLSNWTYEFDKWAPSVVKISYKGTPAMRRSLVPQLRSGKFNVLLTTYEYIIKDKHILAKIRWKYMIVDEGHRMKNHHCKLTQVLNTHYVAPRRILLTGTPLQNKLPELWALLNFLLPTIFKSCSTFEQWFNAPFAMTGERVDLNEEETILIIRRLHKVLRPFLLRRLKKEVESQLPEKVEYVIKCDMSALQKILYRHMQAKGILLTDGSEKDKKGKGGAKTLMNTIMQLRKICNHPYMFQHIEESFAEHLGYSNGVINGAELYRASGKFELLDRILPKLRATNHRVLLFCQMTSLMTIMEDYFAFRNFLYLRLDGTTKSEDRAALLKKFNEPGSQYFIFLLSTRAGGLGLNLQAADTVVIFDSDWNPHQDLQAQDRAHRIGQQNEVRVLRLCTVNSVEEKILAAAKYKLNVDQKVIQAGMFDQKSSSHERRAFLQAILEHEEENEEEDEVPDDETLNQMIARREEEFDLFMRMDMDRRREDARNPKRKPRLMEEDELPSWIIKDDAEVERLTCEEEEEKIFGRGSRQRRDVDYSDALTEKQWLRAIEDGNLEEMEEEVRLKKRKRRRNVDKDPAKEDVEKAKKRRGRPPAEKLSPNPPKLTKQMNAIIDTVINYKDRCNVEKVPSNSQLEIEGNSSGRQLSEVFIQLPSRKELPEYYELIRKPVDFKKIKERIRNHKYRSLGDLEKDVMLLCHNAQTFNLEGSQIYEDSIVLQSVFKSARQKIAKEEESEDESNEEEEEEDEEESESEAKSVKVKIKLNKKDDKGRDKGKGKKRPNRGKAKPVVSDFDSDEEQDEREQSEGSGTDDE

Compound | DC50 (BRG1) [nM] | Dmax (BRG1) [%] | DC50 (BRM) [nM] | BRM IF Degradation Sinf (%) (BRM)
Nc1nnc(-c2ccccc2O)cc1N1CC2CCC(C1)N2c1ccnc(C#CCN2CCn3cccc3C2)c1 [Compound 107, 2-[6-amino-5-[8-[2-[3-(3,4-dihydro-1H-pyrrolo[l,2-a]pyrazin-2-yl)prop-1-ynyl]-4-pyridyl]-3,8-diazabicyclo[3.2.1]octan-3-yl]pyridazin-3-yl]phenol] | 10 to 100 | 0 to 30 | 10 to 100 | E (E indicates −30%-−70%)
Nc1nnc(-c2ccccc2O)cc1N1CC2CCC(C1)N2c1ccnc(C#CCN2CCCCC2)c1 [Compound 166, 2-(6-amino-5-(8-(2-(3-(piperidin-1-yl)prop-1-yn-1-yl)pyridin-4-yl)-3,8-diazabicyclo[3.2.1]octan-3-yl)pyridazin-3-yl)phenol] | > 100 | – | < 10 | E (E indicates −30%-−70%)
CN1C[C@@H]2CN(CC#Cc3cc(N4C5CCC4CN(c4cc(-c6ccccc6O)nnc4N)C5)ccn3)C[C@@H]2C1 [Compound 108, 2-[5-[8-[2-[3-[(3aS,6aR)-2-methyl-1,3,3a,4,6,6a-hexahydropyrrolo[3,4-c]pyrrol-5-yl]prop-1-ynyl]-4-pyridyl]-3,8-diazabicyclo[3.2.1]octan-3-yl]-6-amino-pyridazin-3-yl]phenol] | > 100 | – | > 100 | E (E indicates −30%-−70%)
Nc1nnc(-c2ccccc2O)cc1N1CC2CCC(C1)N2c1ccnc(C#CCN2CCC3(CCOC3)C2)c1 (centres unmarked) [Compound 140, 2-[6-amino-5-[8-[2-[3-(2-oxa-7-azaspiro[4.4]nonan-7-yl)prop-1-ynyl]-4-pyridyl]-3,8-diazabicyclo[3.2.1]octan-3-yl]pyridazin-3-yl]phenol] | < 10 | 30 to 70 | < 10 | F (F indicates −71%-−120%)
Nc1nnc(-c2ccccc2O)cc1N1CC2CCC(C1)N2c1ccnc(C#CCN2CCC3COCC3C2)c1 (centres unmarked) [Compound 88, 2-[5-[8-[2-[3-(3,3a,4,6,7,7a-hexahydro-1H-furo[3,4-c]pyridin-5-yl)prop-1-ynyl]-4-pyridyl]-3,8-diazabicyclo[3.2.1]octan-3-yl]-6-amino-pyridazin-3-yl]phenol] | < 10 | 0 to 30 | < 10 | E (E indicates −30%-−70%)
CC1(C)CN(CC#Cc2cc(N3C4CCC3CN(c3cc(-c5ccccc5O)nnc3N)C4)ccn2)C1 [Compound 135, 2-[6-amino-5-[8-[2-[3-(3,3-dimethylazetidin-1-yl)prop-1-ynyl]-4-pyridyl]-3,8-diazabicyclo[3.2.1]octan-3-yl]pyridazin-3-yl]phenol] | < 10 | 30 to 70 | < 10 | E (E indicates −30%-−70%)
Nc1nnc(-c2ccccc2O)cc1N1CC2CCC(C1)N2c1ccnc(C#CCN2CCOC3CC32)c1 (centres unmarked) [Compound 74, 2-[6-amino-5-[8-[2-[3-(2-oxa-5-azabicyclo[4.1.0]heptan-5-yl)prop-1-ynyl]-4-pyridyl]-3,8-diazabicyclo[3.2.1]octan-3-yl]pyridazin-3-yl]phenol] | > 100 | – | 10 to 100 | E (E indicates −30%-−70%)
Nc1nnc(-c2ccccc2O)cc1N1CC2CCC(C1)N2c1ccnc(C#CCN2CC3CCCC(C2)O3)c1 [Compound 101, 2-[6-amino-5-[8-[2-[3-(9-oxa-3-azabicyclo[3.3.1]nonan-3-yl)prop-l-ynyl]-4-pyridyl]-3,8-diazabicyclo[3.2.1]octan-3-yl]pyridazin-3-yl]phenol] | > 100 | – | 10 to 100 | E (E indicates −30%-−70%)
Nc1nnc(-c2ccccc2O)cc1N1CC2CCC(C1)N2c1ccnc(C#CCN2CC3(CCCCO3)C2)c1 [Compound 66, 2-[6-amino-5-[8-[2-[3-(5-oxa-2-azaspiro[3.5]nonan-2-yl)prop-1-ynyl]-4-pyridyl]-3,8-diazabicyclo[3.2.1]octan-3-yl]pyridazin-3-yl]phenol] | 10 to 100 | 30 to 70 | < 10 | F (F indicates −71%-−120%)
Nc1nnc(-c2ccccc2O)cc1N1CC2CCC(C1)N2c1ccnc(C#CCN2CCCCC(F)(F)C2)c1 [Compound 181, 2-[6-amino-5-[8-[2-[3-(3,3-difluoroazepan-1-yl)prop-1-ynyl]-4-pyridyl]-3,8-diazabicyclo[3.2.1]octan-3-yl]pyridazin-3-yl]phenol] | 10 to 100 | 30 to 70 | 10 to 100 | F (F indicates −71%-−120%)
CNC(=O)[C@H]1CCN(CC#Cc2cc(N3C4CCC3CN(c3cc(-c5ccccc5O)nnc3N)C4)ccn2)C1 [Compound 122, (3S)-1-[3-[4-[3-[3-amino-6-(2-hydroxyphenyl)pyridazin-4-yl]-3,8-diazabicyclo[3.2.1]octan-8-yl]-2-pyridyl]prop-2-ynyl]-N-methyl-pyrrolidine-3-carboxamide] | 10 to 100 | 30 to 70 | 10 to 100 | F (F indicates −71%-−120%)
Nc1nnc(-c2ccccc2O)cc1N1CC2CCC(C1)N2c1ccnc(C#CCN2CCOC(CF)C2)c1 (centres unmarked) [Compound 114, 2-[6-amino-5-[8-[2-[3-[2-(fluoromethyl)morpholin-4-yl]prop-1-ynyl]-4-pyridyl]-3,8-diazabicyclo[3.2.1]octan-3-yl]pyridazin-3-yl]phenol] | > 100 | – | 10 to 100 | E (E indicates −30%-−70%)
Nc1nnc(-c2ccccc2O)cc1N1CC2CCC(C1)N2c1ccnc(C#CCN2CCCCC(O)C2)c1 (centres unmarked) [Compound 242, 1-[3-[4-[3-[3-amino-6-(2-hydroxyphenyl)pyridazin-4-yl]-3,8-diazabicyclo[3.2.1]octan-8-yl]-2-pyridyl]prop-2-ynyl]azepan-3-ol] | < 10 | 30 to 70 | < 10 | F (F indicates −71%-−120%)
CC1CN(CC#Cc2cc(N3C4CCC3CN(c3cc(-c5ccccc5O)nnc3N)C4)ccn2)CCCO1 (centres unmarked) [Compound 42, 2-[6-amino-5-[8-[2-[3-(2-methyl-1,4-oxazepan-4-yl)prop-1-ynyl]-4-pyridyl]-3,8-diazabicyclo[3.2.1]octan-3-yl]pyridazin-3-yl]phenol] | 10 to 100 | 30 to 70 | 10 to 100 | E (E indicates −30%-−70%)
Oc1ccccc1-c1cc2c(nn1)NC[C@H]1CN(c3ccnc(C#CCN4CCCCCC4)c3)CCN21 (single isomer, unassigned) [Compound 252] | < 10 | 71 to 120 | < 10 | F (F indicates −71%-−120%)
Nc1nnc(-c2ccccc2O)cc1N1CC2CCC(C1)N2c1ccnc(C#CCN2CCC(CO)CC2)c1 [Compound 45, 2-(6-amino-5-(8-(2-(3-(4-(hydroxymethyl)piperidin-1-yl)prop-1-yn-1-yl)pyridin-4-yl)-3,8-diazabicyclo[3.2.1]octan-3-yl)pyridazin-3-yl)phenol] | 10 to 100 | 30 to 70 | 10 to 100 | E (E indicates −30%-−70%)
COC1C2CCC1N(CC#Cc1cc(N3C4CCC3CN(c3cc(-c5ccccc5O)nnc3N)C4)ccn1)C2 (centres unmarked) [Compound 82, 2-[6-amino-5-[8-[2-[3-(7-methoxy-2-azabicyclo[2.2.1]heptan-2-yl)prop-1-ynyl]-4-pyridyl]-3,8-diazabicyclo[3.2.1]octan-3-yl]pyridazin-3-yl]phenol] | < 10 | 30 to 70 | < 10 | E (E indicates −30%-−70%)
CC1CC(O)CCN(CC#Cc2cc(N3C4CCC3CN(c3cc(-c5ccccc5O)nnc3N)C4)ccn2)C1 (centres unmarked) [Compound 219, 1-[3-[4-[3-[3-amino-6-(2-hydroxyphenyl)pyridazin-4-yl]-3,8-diazabicyclo[3.2.1]octan-8-yl]-2-pyridyl]prop-2-ynyl]-6-methyl-azepan-4-ol] | < 10 | 71 to 120 | < 10 | F (F indicates −71%-−120%)
Nc1nnc(-c2ccccc2O)cc1N1CC2CCC(C1)N2c1ccnc(C#CCN2CC3(COCCO3)C2)c1 [Compound 160, 2-[6-amino-5-[8-[2-[3-(5,8-dioxa-2-azaspiro[3.5]nonan-2-yl)prop-1-ynyl]-4-pyridyl]-3,8-diazabicyclo[3.2.1]octan-3-yl]pyridazin-3-yl]phenol] | 10 to 100 | 0 to 30 | 10 to 100 | E (E indicates −30%-−70%)
